Reference: patent publication US5998376A, “Substance P treatment for immunostimulation” (priority 1998, dated 1999)

Key:
[1] = test system: immune system organs (spleen, lymph nodes and thymus); experiment: Organ Weight and Total Cell Recovery, JP-8 exposed mice; assay type: in vivo, C57B16 mice; design: Spleen Weight / Thymus Weight: unit not given here
Procedure: (§1) At 24 hours after the last exposure, the animals were sacrificed and the effects of exposure on the immune system examined. Immune organs (spleen, thymus, blood, lymph nodes and bone marrow) were recovered and analyzed for effects on organ weight, total cell numbers, immune cell populations (by differentials), and lymphocyte subpopulations (by flow cytometry). Assays were also performed to examine the effects of exposure on immune function. […] Similar effects on immune cell subpopulations were also observed in lymph nodes. In the thymus it appeared that the immature CD4^+ CD8^+ cells were differentially lost due to exposure. […] However, these effects are prevented or ameliorated by treatment of the animals with Substance P.
Organ Weight and Total Cell Recovery: For each of the immune system organs (spleen, lymph nodes and thymus) the wet weight is determined after removal using a microbalance. After processing of the organs into single cell suspensions the cell numbers and viabilities are determined using trypan blue staining. Histochemical differentials are performed at this time. Cell numbers and viabilities are again determined after centrifugation of the cell suspensions through density gradients to obtain mononuclear cells.

[2] = test system: lymphocyte subpopulations; experiment: Flow cytometric analyses (FACS) of immune organs, JP-8 exposed mice; assay type: in vivo, C57B16 mice
Procedure: as §1
Flow cytometric analyses (FACS): One- and two-color FACS analyses are performed using a Becton-Dickinson FACStar Plus flow cytometer. Cells are stained with the indicated monoclonal antibodies according to standard procedures (Harris et al., id). Cells alone and cells reacted with conjugated isotype control, irrelevant mAbs are used as controls. Data is presented as the percentage of cells staining positive for each individual mAb.

[3] = JP-8 dose 0 + SP or antagonist aerosol
[4] = JP-8 dose 1000 + SP or antagonist aerosol
[5] = JP-8 dose 0 + antagonist aerosol

COc1ccccc1CN[C@H]1C2CCN(CC2)[C@H]1C(c1ccccc1)c1ccccc1 [CP, CP-96,345, reference compound]
BM Cell Number [1, 3]: 29 | LN Cell Number [1, 3]: 9.8 | Spleen Cell Number [1, 3]: 16 | Spleen Weight [1, 3]: 0.12 | Thymus Cell Number [1, 3]: 50 | Thymus Weight [1, 3]: 0.12 | BM Cell Number [1, 4]: 22 | LN Cell Number [1, 4]: 7.1 | Spleen Cell Number [1, 4]: 7 | Spleen Weight [1, 4]: 0.16 | Thymus Cell Number [1, 4]: 75 | Thymus Weight [1, 4]: 0.12 | BM CD3, cells staining positive [2, 3]: 16% | BM CD4, cells staining positive [2, 3]: 9% | BM CD8, cells staining positive [2, 3]: 7% | BM CD45, cells staining positive [2, 3]: 27% | BM MAC1, cells staining positive [2, 3]: 33% | Spleen CD3, cells staining positive [2, 3]: 32% | Spleen CD4, cells staining positive [2, 3]: 21% | Spleen CD8, cells staining positive [2, 3]: 7% | Spleen CD45, cells staining positive [2, 3]: 24% | Spleen MAC1, cells staining positive [2, 3]: 3% | Thymus CD3, cells staining positive [2, 3]: 18% | Thymus DN, cells staining positive [2, 3]: 13% | Thymus DP, cells staining positive [2, 3]: 75% | Thymus SP4, cells staining positive [2, 3]: 12% | Thymus SP8, cells staining positive [2, 3]: 3% | LN CD3, cells staining positive [2, 5]: 49% | LN CD4, cells staining positive [2, 5]: 25% | LN CD8, cells staining positive [2, 5]: 12% | LN CD45, cells staining positive [2, 5]: 15% | LN MAC1, cells staining positive [2, 5]: 1% | PBL CD3, cells staining positive [2, 5]: 72% | PBL CD4, cells staining positive [2, 5]: 29% | PBL CD8, cells staining positive [2, 5]: 13% | PBL CD45, cells staining positive [2, 5]: 12% | PBL MAC1, cells staining positive [2, 5]: 7% | BM CD3, cells staining positive [2, 4]: 14% | BM CD4, cells staining positive [2, 4]: 7% | BM CD8, cells staining positive [2, 4]: 3% | BM CD45, cells staining positive [2, 4]: 41% | BM MAC1, cells staining positive [2, 4]: 26% | LN CD3, cells staining positive [2, 4]: 95% | LN CD4, cells staining positive [2, 4]: 35% | LN CD8, cells staining positive [2, 4]: 23% | PBL CD3, cells staining positive [2, 4]: 50% | PBL CD4, cells staining positive [2, 4]: 20% | PBL CD8, cells staining positive [2, 4]: 15% | PBL CD45, cells staining positive [2, 4]: 27% | PBL MAC1, cells staining positive [2, 4]: 6% | Spleen CD3, cells staining positive [2, 4]: 34% | Spleen CD4, cells staining positive [2, 4]: 16% | Spleen CD8, cells staining positive [2, 4]: 9% | Spleen CD45, cells staining positive [2, 4]: 26% | Spleen MAC1, cells staining positive [2, 4]: 11% | Thymus CD3, cells staining positive [2, 4]: 17% | Thymus DN, cells staining positive [2, 4]: 12% | Thymus DP, cells staining positive [2, 4]: 65% | Thymus SP4, cells staining positive [2, 4]: 17% | Thymus SP8, cells staining positive [2, 4]: 7%

COc1ccccc1CC(=N)N1C[C@@H]2C(=O)CCC(c3ccccc3)(c3ccccc3)[C@@H]2C1 [RP, MRP-67,580, reference compound]
BM Cell Number [1, 4]: 27 | LN Cell Number [1, 4]: 6.8 | Spleen Cell Number [1, 4]: 37 | Spleen Weight [1, 4]: 0.10 | Thymus Cell Number [1, 4]: 72 | Thymus Weight [1, 4]: 0.03 | BM CD3, cells staining positive [2, 4]: 12% | BM CD4, cells staining positive [2, 4]: 6% | BM CD8, cells staining positive [2, 4]: 5% | BM CD45, cells staining positive [2, 4]: 42% | BM MAC1, cells staining positive [2, 4]: 10% | LN CD3, cells staining positive [2, 4]: 96% | LN CD4, cells staining positive [2, 4]: 41% | LN CD8, cells staining positive [2, 4]: 29% | LN CD45, cells staining positive [2, 4]: 18% | LN MAC1, cells staining positive [2, 4]: 1% | PBL CD3, cells staining positive [2, 4]: 71% | PBL CD4, cells staining positive [2, 4]: 18% | PBL CD8, cells staining positive [2, 4]: 10% | PBL CD45, cells staining positive [2, 4]: 38% | PBL MAC1, cells staining positive [2, 4]: 9% | Spleen CD3, cells staining positive [2, 4]: 47% | Spleen CD4, cells staining positive [2, 4]: 16% | Spleen CD8, cells staining positive [2, 4]: 5% | Spleen CD45, cells staining positive [2, 4]: 39% | Spleen MAC1, cells staining positive [2, 4]: 1% | Thymus CD3, cells staining positive [2, 4]: 16% | Thymus DN, cells staining positive [2, 4]: 10% | Thymus DP, cells staining positive [2, 4]: 70% | Thymus SP4, cells staining positive [2, 4]: 12% | Thymus SP8, cells staining positive [2, 4]: 8%
